Series [1] addresses T1, hP2X4 (human purinergic P2X receptor subtype 4) (Homo sapiens, UniProt Q99571).
T1 sequence (Q99571 1-404 isoform Q99571-2): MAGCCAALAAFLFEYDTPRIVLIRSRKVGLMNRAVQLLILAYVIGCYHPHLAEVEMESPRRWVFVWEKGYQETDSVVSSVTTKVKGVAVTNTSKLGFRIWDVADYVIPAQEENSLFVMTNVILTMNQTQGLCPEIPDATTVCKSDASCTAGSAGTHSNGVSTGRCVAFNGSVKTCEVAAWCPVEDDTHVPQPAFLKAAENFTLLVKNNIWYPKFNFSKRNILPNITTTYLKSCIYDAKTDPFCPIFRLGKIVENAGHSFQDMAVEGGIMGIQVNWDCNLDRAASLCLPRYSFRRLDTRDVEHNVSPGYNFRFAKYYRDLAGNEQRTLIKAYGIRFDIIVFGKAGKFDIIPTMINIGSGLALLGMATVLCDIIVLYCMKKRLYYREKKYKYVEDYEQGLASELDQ
The series can be described thus: FLIPR assay of intracellular calcium increase induced by activation of hP2X4 expressed in HEK293 cells (agonist BZ-ATP 2.5 μM). The settings on record: HEK293 cells stably expressing hP2X4, FLIPR, read-out: P2X4 IC50. It counts as cell-based. In short, it runs like this: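 Inhibition of the calcium signal was measured by FLIPR after a 2.5 μM final BZ-ATP challenge, with readings every second over 2 min. Stable hP2X4-HEK293 cells were dye-loaded (Calcium 6, 37° C, 1.5 h) and equilibrated with test compound for 30 min at room temperature beforehand.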
On the technique in general: A change in cytosolic calcium serves as a functional read-out for many receptors and channels.

Series [2] can be described thus: In vitro metabolic stability, liver microsome incubation (human). The following applies: human, liver microsomes, 1 mg/mL liver microsome protein, 37° C., read-out: T1/2 in human liver microsome min. Format: in vitro ADME. As to the method: (§1) The in vitro metabolic stability of the compounds disclosed herein was determined through incubation of liver microsomes of various species. A proper amount of test compound was added into a liver microsome reaction system (1 mg/mL liver microsome protein, 25 U/mL glucose-6 phosphate dehydrogenase, 1 mM NADP, 6 mM D-glucose 6-phosphate and 5 mM MgCl2), and then the mixture was incubated in a water bath kettle at 37° C. to start the reaction. At each time point, 100 μL of the reaction system was added into a centrifuge tube containing 400 μL of internal standard working solution (containing a 200 ng/mL solution of dexamethasone, diclofenac, tolbutamide and labetalol in acetonitrile) precooled at 0° C. so as to stop the reaction, and the mixture was then centrifuged at 10,000 g for 10 min at 4° C. The supernatant was collected for LC-MS assay so as to obtain the values of in vitro metabolic half-life of the test compounds in liver microsomes of various species.
For orientation: Liver microsomes are a subcellular fraction often used to study metabolism.

A short description of series [3]: In vitro metabolic stability, liver microsome incubation (rat). The following applies: rat, liver microsomes; 1 mg/mL liver microsome protein, 37° C.; read-out: T1/2 in rat liver microsome min. Format: in vitro ADME. As to the method: as §1
Series [4] in a line: In vitro cytotoxicity assay in HepG2 cells, CCK-8 method. The following applies: human.
Description: In vitro cytotoxicity assay for the compounds disclosed herein was performed in HepG2 cells using the CCK-8 method. HepG2 cells (Beina Bio) in the logarithmic growth phase were collected, the concentration of cell suspension was adjusted, and then the cells were plated on a 96-well cell culture plate at 50,000 cells/well. The cells were then incubated overnight in a cell incubator (5%/humidity, 37° C.), and after 80-90% cell confluence was achieved, test compounds or vehicle (DMSO) at various concentration gradients were added after medium change. The resulting mixture was incubated in the cell incubator (5% humidity, 37° C.) for 48 h. After the treatment, the medium in the plate was discarded. The plate was washed twice with PBS, added with CCK-8 working solution (Beyotime) at 100 μL per well, and then incubated at 37° C. for 1.5 h away from the light. Absorbance at OD450 nm was measured for each well on a microplate reader, and CC50 value of each compound was analyzed and calculated.
Series [5] relates to Male Dunkin Hartley guinea pigs. The series can be described thus: Citric acid only cough model in guinea pigs. Format: in vivo. The settings on record: guinea pig, 17.5% citric acid. The method, then:
Male Dunkin Hartley guinea pigs (300-350 g) were placed in an animal atomization box, and then the door of the atomization box was closed while the ultrasonic atomizer (Guangdong Yuehua) was turned on. 17.5% citric acid gas was introduced into the atomization box at a maximum atomization rate (about 2 mL/min) for 20 s, and coughs of the animals within 10 min were continuously observed from the time of the start of atomization. During the 10-min observation, coughs of the animals needed to be counted manually, and the number of coughs were judged according to cough postures of the guinea pigs, such as abdominal twitching, mouth opening, and head inclining downward abruptly. The number of coughs during the first 5 min and that during 10 min were recorded, and the cough latency of the guinea pigs, namely the time from the initiation of citric acid induction to the appearance of the 1st cough, was also recorded.
Cough inhibition rate Vs vehicle represents the percentage of reduction
[formula] in the number of coughs in the administration group compared to the vehicle group upon citric acid challenge; Cough inhibition rate Vs baseline represents the percentage of reduction
[formula] in the number of coughs in the administration group before and after administration.

Setting [6] is: 60 mg/kg group, before administration (baseline).

Where two headings read alike, the source gives them in different places.

A word on the IC50: it is the point on the concentration scale where inhibition reaches its midpoint. As to `NS(=O)(=O)c1cc(NC(=O)Cc2ccccc2Cl)cc2c1cnn2CC1CCOC1` (centres unmarked) [Compound 110A, 2-(2-chlorophenyl)-N-(4-sulfamoyl-1-((tetrahydrofuran-3-yl)methyl)-1H-indazol-6-yl)acetamide], in series [1] (class symbols), the IC50 was in the range of 0.2 to 5 µM. Moreover, the figures for the half-life in series [2] and in series [3] were 0.882 h and 0.335 h, respectively.

As to `NS(=O)(=O)c1cc(NC(=O)Cc2ccccc2Cl)cc2nn(CC3CCOCC3)cc12` [Compound 141, 2-(2-chlorophenyl)-N-(4-sulfamoyl-2-((tetrahydro-2H-pyran-4-yl)methyl)-2H-indazol-6-yl)acetamide], in series [1] (class symbols), the IC50 fell in the range of 0.05 to 0.2 µM. Further, the half-life is 1.07 h in series [2] and 0.226 h in series [3].

The CC50 is the concentration giving 50% cytotoxicity. A lower CC50 goes with greater toxicity to the cells. With `CCC(F)(F)n1cc2c(S(N)(=O)=O)cc(NC(=O)Cc3ccccc3Cl)cc2n1` [Compound 133, 2-(2-chlorophenyl)-N-(2-(1,1-difluoropropyl)-4-sulfamoyl-2H-indazol-6-yl)acetamide], the half-inhibitory concentration (IC50) in series [1] (class symbols) was in the range of 0.01 to 0.05 µM. The results for the half-life in series [2] and in series [3] were 25 h and 2.26 h, respectively. Also, in series [4], the CC50 at 48 h was above 100 µM.

`CC(C)Cn1cc2c(S(N)(=O)=O)cc(NC(=O)Cc3ccccc3Cl)cc2n1` [Compound 7-A, 2-(2-chlorophenyl)-N-(2-isobutyl-4-sulfamoyl-2H-indazol-6-yl)acetamide]: the IC50 in series [1] (numeric values) was found to be 0.0048 µM. The half-life in series [2] came to 0.988 h.

As to `COc1ccc(Cn2cc3c(S(N)(=O)=O)cc(NC(=O)Cc4ccccc4Cl)cc3n2)cc1` [Compound 35-A, 2-(2-chlorophenyl)-N-(2-(4-methoxybenzyl)-4-sulfamoyl-2H-indazol-6-yl)acetamide], the IC50 in series [1] (class symbols) fell in the range of 0.01 to 0.05 µM. For the same molecule, the half-life in series [2] was 6.21 h. Moreover, the CC50 at 48 h in series [4] is above 200 µM.

In the case of `CC(C)OCCn1cc2c(S(N)(=O)=O)cc(NC(=O)Cc3ccccc3Cl)cc2n1` [Compound 26-A, 2-(2-chlorophenyl)-N-(2-(2-isopropoxyethyl)-4-sulfamoyl-2H-indazol-6-yl)acetamide], the IC50 in series [1] (numeric values) amounted to 0.0061 µM. The half-life in series [2] was found to be 2.09 h. In series [4], this molecule returned a 50% cytotoxic concentration (CC50) at 48 h above 200 µM.

For the molecule `NS(=O)(=O)c1cc(NC(=O)Cc2ccccc2Cl)cc2c1cnn2CC(F)F` [Compound 12-B, 2-(2-chlorophenyl)-N-(1-(2,2-difluoroethyl)-4-sulfamoyl-1H-indazol-6-yl)acetamide], the IC50 in series [1] (numeric values) amounted to 0.0218 µM. The half-life in series [2] was 0.301 h.

Consider `NS(=O)(=O)c1cc(NC(=O)Cc2ccccc2Cl)cc2nn(CC3CCCC3)cc12` [Compound 31-A, 2-(2-chlorophenyl)-N-(2-(cyclopentylmethyl)-4-sulfamoyl-2H-indazol-6-yl)acetamide], for which the IC50 in series [1] (class symbols) was at most 0.01 µM. Also, the half-life in series [2] was determined as 0.748 h.

With `CC(C)C(C)n1cc2c(S(N)(=O)=O)cc(NC(=O)Cc3ccccc3Cl)cc2n1` (centres unmarked) [Compound 10, 2-(2-chlorophenyl)-N-(2-(3-methylbutan-2-yl)-4-sulfamoyl-2H-indazol-6-yl)acetamide], the half-inhibitory concentration (IC50) in series [1] (class symbols) fell in the range of 0.01 to 0.05 µM. In series [2], the half-life amounted to 0.408 h.

Regarding `Cn1ncc2c(S(N)(=O)=O)cc(NC(=O)Cc3ccccc3Cl)cc21` [Compound 3-B, 2-(2-chlorophenyl)-N-(1-methyl-4-sulfamoyl-1H-indazol-6-yl)acetamide], in series [1] (numeric values), the IC50 stood at 0.0063 µM. The half-life in series [2] was 2.58 h.

As to `NS(=O)(=O)c1cc(NC(=O)Cc2ccccc2Cl)cc2c1cnn2CC1CCCO1` (centres unmarked) [Compound 120A, 2-(2-chlorophenyl)-N-(4-sulfamoyl-1-((tetrahydrofuran-2-yl)methyl)-1H-indazol-6-yl)acetamide], in series [1] (class symbols), the IC50 fell in the range of 0.05 to 0.2 µM. Besides, the figures for the half-life in series [2] and in series [3] were 0.371 h and 0.137 h, respectively.

With `NS(=O)(=O)c1cc(NC(=O)Cc2ccccc2Cl)cc2nn(CC3CCC3)cc12` [Compound 24-A, 2-(2-chlorophenyl)-N-(2-(cyclobutylmethyl)-4-sulfamoyl-2H-indazol-6-yl)acetamide], the IC50 in series [1] (numeric values) amounted to 0.0016 µM. In addition, the half-life in series [2] is 1.08 h.

On to `COc1ccc(Cn2ncc3c(S(N)(=O)=O)cc(NC(=O)Cc4ccccc4Cl)cc32)cc1` [Compound 35-B, 2-(2-chlorophenyl)-N-(1-(4-methoxybenzyl)-4-sulfamoyl-1H-indazol-6-yl)acetamide], for which the IC50 in series [1] (class symbols) was in the range of 0.01 to 0.05 µM. Besides, the half-life in series [2] came out at 4.66 h. The same molecule displayed a CC50 at 48 h in series [4] above 200 µM.

With `NS(=O)(=O)c1cc(NC(=O)Cc2ccccc2Cl)cc2cn(CC3CC3)nc12` [Compound 47, 2-(2-chlorophenyl)-N-(2-(cyclopropylmethyl)-7-sulfamoyl-2H-indazol-5-yl)acetamide], the half-maximal inhibitory concentration (IC50) in series [1] (numeric values) is 0.017 µM. In addition, the half-life in series [2] was determined as 13.1 h. In series [4], this molecule yielded a CC50 at 48 h above 200 µM.

For `Nc1ccc(Cn2ncc3c(S(N)(=O)=O)cc(NC(=O)Cc4ccccc4Cl)cc32)cn1` [Compound 101A, N-(1-((6-aminopyridin-3-yl)methyl)-4-sulfamoyl-1H-indazol-6-yl)-2-(2-chlorophenyl)acetamide], the IC50 in series [1] (class symbols) was 0.01 to 0.05 µM. Besides, in series [2], the half-life is 1.19 h.

As for `NS(=O)(=O)c1cc(NC(=O)Cc2ccccc2Cl)cc2nn(CC(F)F)cc12` [Compound 12-A, 2-(2-chlorophenyl)-N-(2-(2,2-difluoroethyl)-4-sulfamoyl-2H-indazol-6-yl)acetamide], the IC50 in series [1] (numeric values) worked out at 0.031 µM. In series [2] (symbol NA), the half-life is above 106 h. Also, in series [4], the cytotoxic concentration (CC50) at 48 h is above 200 µM.

For the molecule `NS(=O)(=O)c1cc(NC(=O)Cc2ccccc2Cl)cc2nn(CC3CCOC3)cc12` (centres unmarked) [Compound 110, 2-(2-chlorophenyl)-N-(4-sulfamoyl-2-((tetrahydrofuran-3-yl)methyl)-2H-indazol-6-yl)acetamide], in series [1] (class symbols), the IC50 lay in the range of 0.05 to 0.2 µM. The results for the half-life in series [2] and in series [3] were 7.18 h and 1.15 h, respectively.

Regarding `C=CC(F)(F)n1cc2c(S(N)(=O)=O)cc(NC(=O)Cc3ccccc3Cl)cc2n1` [Compound 134, 2-(2-chlorophenyl)-N-(2-(1,1-difluoroallyl)-4-sulfamoyl-2H-indazol-6-yl)acetamide], the IC50 in series [1] (class symbols) lay within 0.01 to 0.05 µM. Also, the half-life in series [2] is 13.7 h; in series [3], 3.22 h.

In the case of `Cn1cc2c(S(N)(=O)=O)cc(NC(=O)Cc3ccccc3Cl)cc2n1` [Compound 3-A, 2-(2-chlorophenyl)-N-(2-methyl-4-sulfamoyl-2H-indazol-6-yl)acetamide], in series [1] (numeric values), the IC50 is 0.0049 µM. Besides, in series [2], the half-life was 106 h.

Regarding `CC(C)CCn1cc2c(S(N)(=O)=O)cc(NC(=O)Cc3ccccc3Cl)cc2n1` [Compound 8-A, 2-(2-chlorophenyl)-N-(2-isopentyl-4-sulfamoyl-2H-indazol-6-yl)acetamide], in series [1] (numeric values), the IC50 was determined as 0.0139 µM. Further, the half-life in series [2] worked out at 0.584 h. The same molecule gave a CC50 at 48 h in series [4] above 200 µM.

`COc1ccc2c(c1)[C@]13CCCC[C@@H]1[C@H](C2)N(C)CC3` [Dextromethorphan, dextromethorphan, reference compound]: in series [5] (60 mg/kg), the “Cough inhibition rate Vs vehicle (%)” value is given as 33.95%. Further, in series [5] (setting [6]), the “Cough latency” value worked out at 73.43 s and the “Mean number of coughs” value is recorded as 18.57. For the same molecule, in series [5] (60 mg/kg, after administration), the “Cough latency” value is recorded as 154.29 s and the “Mean number of coughs” value came out at 12.71. Also, in series [5] (60 mg/kg, before vs after administration), the “Cough inhibition rate Vs baseline (%)” value is given as 31.54%.

`NS(=O)(=O)c1cc(NC(=O)Cc2ccccc2Cl)cc2nn(CC3CCCO3)cc12` (centres unmarked) [Compound 120, 2-(2-chlorophenyl)-N-(4-sulfamoyl-2-((tetrahydrofuran-2-yl)methyl)-2H-indazol-6-yl)acetamide]: the 50% inhibitory concentration (IC50) in series [1] (class symbols) was 0.05 to 0.2 µM. Also, the half-life in series [2] came to 1.06 h; in series [3], 0.226 h.

For the origin of these results see patent US12503444B2, “Compound containing benzene ring and application thereof” (WUHAN LL SCIENCE AND TECHNOLOGY DEVELOPMENT CO., LTD., priority 2019, dated 2025).
